In brackets after ≈: the same amount, converted by molar mass. Where two headings read alike, the source gives them in different places.
Tests used:
[1] = tested on: Salmonella ATCC 12176; test: MIC in vitro (Table 1), Salmonella ATCC 12176; type: cell-based
Text: (§1) The compounds of Formula I have antibacterial activity against both Gram-positive and Gram-negative organisms. […] Compound names corresponding to numbers are given in the experimental section. For comparative purposes, data for cephamandole, which is 7-mandelamido-3-(1-methyltetrazol-5-ylthiomethyl)-3-cephem-4-carboxylic acid, is also given in Tables 1 and 2.

[2] = tested on: Kleb. pneumo. SK 4200; test: MIC in vitro (Table 1), Kleb. pneumo. SK 4200; type: cell-based
Text: (§2) Compound names corresponding to numbers are given in the experimental section. For comparative purposes, data for cephamandole, which is 7-mandelamido-3-(1-methyltetrazol-5-ylthiomethyl)-3-cephem-4-carboxylic acid, is also given in Tables 1 and 2.

[3] = tested on: Kleb. pneumo. SK 1200; test: MIC in vitro (Table 1), Kleb. pneumo. SK 1200; type: cell-based
Text: as §2

[4] = tested on: Pseudo. sp. HH 63; test: MIC in vitro (Table 1), Pseudo. sp. HH 63; type: cell-based; settings: in vitro, Pseudo. sp. HH 63; read-out: MIC
Text: as §1

[5] = tested on: Entero. cloacae HH 31254; test: MIC in vitro (Table 1), Entero. cloacae HH 31254; type: cell-based; settings: Entero. cloacae HH 31254
Text: as §2

[6] = tested on: S. villaluz; test: MIC in vitro (Table 1), S. villaluz; type: cell-based
Text: as §1

[7] = tested on: S. aureus SK 23390; test: MIC in vitro (Table 1), S. aureus SK 23390; type: cell-based
Text: as §2

[8] = tested on: Proteus morgani 179; test: MIC in vitro (Table 1), Proteus morgani 179; type: cell-based
Text: as §2

[9] = tested on: Strep. Faecalis HH 34358; test: MIC in vitro (Table 1), Strep. Faecalis HH 34358; type: cell-based
Text: as §2

[10] = tested on: Shigella HH 117; test: MIC in vitro (Table 1), Shigella HH 117; type: cell-based
Text: as §1

[11] = tested on: Entero. aerog. ATCC 13048; test: MIC in vitro (Table 1), Entero. aerog. ATCC 13048; type: cell-based
Text: as §2

[12] = tested on: E. coli SK 12140; test: MIC in vitro (Table 1), E. coli SK 12140; type: cell-based
Text: as §2

[13] = tested on: E. coli HH 33779; test: MIC in vitro (Table 1), E. coli HH 33779; type: cell-based
Text: as §2

[14] = tested on: S. aureus HH 127; test: MIC in vitro (Table 1), S. aureus HH 127; type: cell-based
Text: as §2

[15] = tested on: E. coli 12140; test: In vivo mouse protection (Table 2), E. coli 12140
Text: as §2

[16] = tested on: Kleb. pneumo. 4200; test: In vivo mouse protection (Table 2), Kleb. pneumo. 4200
Text: as §2

[17] = tested on: Serra. Marc. ATCC 13880; test: MIC in vitro (Table 1), Serra. Marc. ATCC 13880; type: cell-based
Text: as §2

[18] = Salmonella, ATCC12176, in vitro, read-out: MIC
[19] = in vitro, Kleb. pneumo. SK 4200, read-out: MIC
[20] = Enterobacter cloacae, HH31254, in vitro, read-out: MIC
[21] = Shigella, HH117, in vitro, read-out: MIC
[22] = in vitro, Entero. aerog. ATCC 13048, read-out: MIC
[23] = Escherichia coli, SK12140, in vitro
[24] = Escherichia coli, HH33779, in vitro, E. coli HH 33779, read-out: MIC
[25] = Staphylococcus aureus, HH127, in vitro, S. aureus HH 127, read-out: MIC
[26] = Escherichia coli, 12140, po, E. coli 12140, p.o.
[27] = Escherichia coli, 12140, sc, E. coli 12140, s.c.
[28] = in vitro, Serra. Marc. ATCC 13880, read-out: MIC
[29] = Enterococcus faecalis, in vitro, Strep. Faecalis HH 34358, read-out: MIC
[30] = Staphylococcus aureus, SK23390, in vitro, S. aureus SK 23390, read-out: MIC

Molecule | MIC [1, 18] | MIC [2, 19] | MIC [3] | MIC [4] | MIC [5, 20] | MIC ([6]; read-out: MIC) | MIC ([7]; Staphylococcus aureus, SK23390) | MIC ([8]; read-out: MIC) | MIC [10, 21] | MIC [11, 22] | MIC [12, 23] | MIC [13, 24] | MIC [14, 25] | ED50 [15, 26] | ED50 [15, 27] | ED50 ([16]; sc, Kleb. pneumo. 4200, s.c.) | MIC ([1]; in vitro) | MIC [8] | MIC [17, 28] | MIC [9, 29] | further results
NC(=O)CCn1nnnc1SCC1=C(C(=O)O)N2C(=O)C(NC(=O)CSC(F)(F)F)[C@H]2SC1 (stereo partly drawn) [XVI, 7-Trifluoromethylmercaptoacetamido-3-[1-(2-carbamoylethyl)tetrazol-5-ylthiomethyl]-3-cephem-4-carboxylic acid] | 0.4 µg/mL (≈ 0.758 µM) | 0.8 µg/mL (≈ 1.52 µM) | 0.4 µg/mL (≈ 0.758 µM) | > 200 µg/mL | 0.4 µg/mL (≈ 0.758 µM) | 6.3 µg/mL (≈ 11.9 µM) | 0.8 µg/mL (≈ 1.52 µM) | 12.5 µg/mL (≈ 23.7 µM) | 0.2 µg/mL (≈ 0.379 µM) | 1.6 µg/mL (≈ 3.03 µM) | 0.4 µg/mL (≈ 0.758 µM) | 1.6 µg/mL (≈ 3.03 µM) | 0.4 µg/mL (≈ 0.758 µM) | 25 mg/kg | 0.78 mg/kg | 0.54 mg/kg | – | – | – | – | MIC ([9]; Enterococcus faecalis): 12.5 µg/mL (≈ 23.7 µM)
7-(α-Carboxythienylacetamido)-3-(1-carboxymethyltetrazol-5-ylthiomethyl)-3-cephem-4-carboxylic acid [XIX] | – | – | 6 µg/mL | – | – | – | – | – | – | – | – | – | – | – | – | – | 25 µg/mL | 6 µg/mL | – | – | MIC ([2]; in vitro, Kleb. pneumo. SK 4200): 50 µg/mL; MIC ([5]; in vitro): 50 µg/mL; MIC [6]: 100 µg/mL; MIC ([17]; in vitro, Serra. Marc. ATCC 13880): 50 µg/mL; MIC ([7]; in vitro, S. aureus SK 23390): 50 µg/mL; MIC ([9]; in vitro, Strep. Faecalis HH 34358): 200 µg/mL; MIC ([10]; in vitro): 6 µg/mL; MIC ([11]; in vitro, Entero. aerog. ATCC 13048): 50 µg/mL; MIC ([12]; in vitro): 25 µg/mL; MIC ([13]; in vitro, E. coli HH 33779): 50 µg/mL; MIC ([14]; in vitro, S. aureus HH 127): 50 µg/mL
NC(=O)Cn1nnnc1SCC1=C(C(=O)O)N2C(=O)C(NC(=O)CSC(F)(F)F)[C@H]2SC1 (stereo partly drawn) [XVII, 7-Trifluoromethylmercaptoacetamido-3-(1-carbamoylmethyltetrazol-5-ylthiomethyl)-3-cephem-4-carboxylic acid] | 0.4 µg/mL (≈ 0.779 µM) | 0.8 µg/mL (≈ 1.56 µM) | 0.4 µg/mL (≈ 0.779 µM) | – | 0.8 µg/mL (≈ 1.56 µM) | 12.5 µg/mL (≈ 24.3 µM) | 0.4 µg/mL (≈ 0.779 µM) | 200 µg/mL (≈ 389 µM) | 0.2 µg/mL (≈ 0.389 µM) | 1.6 µg/mL (≈ 3.12 µM) | 0.4 µg/mL (≈ 0.779 µM) | 3.1 µg/mL (≈ 6.04 µM) | 0.4 µg/mL (≈ 0.779 µM) | 6.25 mg/kg | 0.28 mg/kg | 0.78 mg/kg | – | – | 100 µg/mL (≈ 195 µM) | 25 µg/mL (≈ 48.7 µM) | ED50 ([16]; po, Kleb. pneumo. 4200, p.o.): 15.5 mg/kg
O=C(O)Cn1nnnc1SCC1=C(C(=O)O)N2C(=O)C(NC(=O)[C@H](O)c3ccccc3)[C@H]2SC1 (stereo partly drawn) [I, 7-D-Mandelamido-3-(1-carboxymethyltetrazol-5-ylthiomethyl)-3-cephem-4-carboxylic acid] | 1.6 µg/mL (≈ 3.16 µM) | 0.8 µg/mL (≈ 1.58 µM) | 1.6 µg/mL (≈ 3.16 µM) | > 200 µg/mL | 0.8 µg/mL (≈ 1.58 µM) | – | 1.6 µg/mL (≈ 3.16 µM) | – | 1.6 µg/mL (≈ 3.16 µM) | 6.3 µg/mL (≈ 12.4 µM) | 1.6 µg/mL (≈ 3.16 µM) | 6.3 µg/mL (≈ 12.4 µM) | – | 50 mg/kg | 1.56 mg/kg | – | 0.8 µg/mL (≈ 1.58 µM) | 3.1 µg/mL (≈ 6.12 µM) | 100 µg/mL (≈ 197 µM) | 100 µg/mL (≈ 197 µM) | MIC [2]: 1.6 µg/mL (≈ 3.16 µM); MIC ([3]; read-out: MIC): 0.8 µg/mL (≈ 1.58 µM); MIC [17]: 25 µg/mL (≈ 49.4 µM); MIC [7, 30]: 3.1 µg/mL (≈ 6.12 µM); MIC ([10]; in vitro): 0.8 µg/mL (≈ 1.58 µM); MIC [11]: 12.5 µg/mL (≈ 24.7 µM); MIC ([13]; Escherichia coli, HH33779): 1.6 µg/mL (≈ 3.16 µM); MIC ([14]; Staphylococcus aureus, HH127): 6.3 µg/mL (≈ 12.4 µM); ED50 ([16]; po, Kleb. pneumo. 4200, p.o.): 25 mg/kg
O=C(O)Cn1nnnc1SCC1=C(C(=O)O)N2C(=O)C(NC(=O)CSC(F)(F)F)[C@H]2SC1 (stereo partly drawn) [XVIII, 7-Trifluoromethylmercaptoacetamido-3-(1-carboxymethyltetrazol-5-ylthiomethyl)-3-cephem-4-carboxylic acid] | 0.8 µg/mL (≈ 1.55 µM) | – | 0.4 µg/mL (≈ 0.777 µM) | – | 3 µg/mL (≈ 5.83 µM) | 100 µg/mL (≈ 194 µM) | – | 200 µg/mL (≈ 389 µM) | 3 µg/mL (≈ 5.83 µM) | 13 µg/mL (≈ 25.3 µM) | – | 6 µg/mL (≈ 11.7 µM) | 3 µg/mL (≈ 5.83 µM) | – | 3.1 mg/kg | 0.4 mg/kg | – | – | > 200 µg/mL | 100 µg/mL (≈ 194 µM) | MIC [2]: 0.4 µg/mL (≈ 0.777 µM); MIC [7, 30]: 3 µg/mL (≈ 5.83 µM); MIC ([12]; Escherichia coli, SK12140, in vitro, read-out: MIC): 0.8 µg/mL (≈ 1.55 µM)

— patent publication US4220644A, “7-Acylamino-3-(substituted tetrazolyl thiomethyl) cephalosporins” (SmithKline Corporation, priority 1976, dated 1980)
